The record followed here is PubChem BioAssay (NCI).

SMILES strings stand for the structures.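 Each compound was tested at five concentrations against cells in 96-well plates for 48 hours. GI50 marks 50% less growth. TGI: total growth inhibition.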

Some test systems named below: SF-539 CNS; MDA-MB-231 breast; SK-MEL-5 melanoma; HOP-62 NSCLC; HT29 colon; M14 melanoma; SK-OV-3 ovarian; NCI-H226 lung; COLO 205 colon; K-562 leukemia.
Assay in all cases: DTP human tumour cell line panel, 48 h

A word on the GI50: it is the concentration that inhibits growth by half. Usually TGI stands for the concentration at which net growth stops.

As to `Fc1ccc(CNc2c3ccccc3nc3ccccc23)cc1`, the GI50 is 2.22 µM with SF-539 CNS; 1.9 µM with MDA-MB-231 breast; 1.73 µM with SK-MEL-5 melanoma; 3.58 µM in the assay on HOP-62 NSCLC; 2.27 µM with HT29 colon; 2.97 µM in the assay on M14 melanoma. The GI50 is 2.56 µM with SK-OV-3 ovarian, 2 µM with NCI-H226 lung, 1.66 µM in the assay with COLO 205 colon and 2.49 µM with K-562 leukemia. The concentration for total growth inhibition (TGI) in the assay on SF-539 CNS turned out to be 5.7 µM; with MDA-MB-231 breast, 5.58 µM; with SK-MEL-5 melanoma, 3.1 µM; with HOP-62 NSCLC, 16.7 µM; with HT29 colon, 9.54 µM; in the assay with M14 melanoma, 12.4 µM. Besides, the concentration for total growth inhibition (TGI) was determined as 10.1 µM with SK-OV-3 ovarian, 5.44 µM in the assay on NCI-H226 lung, 3.7 µM in the assay with COLO 205 colon and 16.2 µM with K-562 leukemia.
In the case of `CN(C)CCCNC(=O)c1cc(NC(=O)CCNC(=O)c2ccc3c(c2)C(=O)c2ccccc2C3=O)cn1C`, the GI50 in the assay with SF-539 CNS is greater than 100 µM; with MDA-MB-231 breast, greater than 100 µM; in the assay with SK-MEL-5 melanoma it was greater than 100 µM; in the assay with HOP-62 NSCLC, greater than 100 µM; in the assay with HT29 colon it was 79.8 µM; in the assay on M14 melanoma, greater than 100 µM. Moreover, the GI50 is greater than 100 µM in the assay on SK-OV-3 ovarian, greater than 100 µM in the assay on NCI-H226 lung, 33.9 µM in the assay on COLO 205 colon and greater than 100 µM in the assay on K-562 leukemia. Also, the concentration for total growth inhibition (TGI) in the assay with SF-539 CNS, in the assay with MDA-MB-231 breast, in the assay on SK-MEL-5 melanoma, in the assay with HOP-62 NSCLC, with HT29 colon and in the assay with M14 melanoma was greater than 100 µM each time. Besides, the TGI in the assay on SK-OV-3 ovarian, in the assay with NCI-H226 lung, in the assay on COLO 205 colon and in the assay on K-562 leukemia was greater than 100 µM each time.
For `CCOC(=O)c1ccc2c(c1)[n+](=O)c(C(=O)c1ccc3ccccc3c1)c(C(F)(F)F)n2[O-]`, the GI50 is 1.56 µM in the assay with SF-539 CNS; 1.58 µM in the assay with MDA-MB-231 breast; 1.45 µM in the assay on SK-MEL-5 melanoma; 1.66 µM with HOP-62 NSCLC; 1.08 µM in the assay with HT29 colon; 1.44 µM in the assay with M14 melanoma. Besides, the GI50 in the assay with SK-OV-3 ovarian is 1.64 µM; in the assay on NCI-H226 lung, 1.74 µM; in the assay on COLO 205 colon, 1.52 µM; with K-562 leukemia, 0.312 µM. Besides, the TGI in the assay on SF-539 CNS stood at 2.9 µM; in the assay with MDA-MB-231 breast, 3.15 µM; with SK-MEL-5 melanoma it was 2.78 µM; with HOP-62 NSCLC, 3.08 µM; with HT29 colon, 2.27 µM; in the assay on M14 melanoma, 2.74 µM. The TGI in the assay on SK-OV-3 ovarian is 2.99 µM; with NCI-H226 lung, 3.57 µM; in the assay on COLO 205 colon, 2.87 µM; in the assay with K-562 leukemia it was 1.51 µM.
On to `CC(C)(C)C(=O)OCOP(=O)(OCOC(=O)C(C)(C)C)C1CCCN(OC(=O)c2ccccc2)C1=O` (stereo not given), for which the GI50 was 3.72 µM in the assay on SF-539 CNS; 0.716 µM in the assay on MDA-MB-231 breast; 0.983 µM with SK-MEL-5 melanoma; 1.9 µM in the assay on HOP-62 NSCLC; 0.529 µM in the assay on HT29 colon; 2.3 µM in the assay on M14 melanoma. Also, the GI50 is 1.99 µM in the assay with SK-OV-3 ovarian, 1.34 µM with NCI-H226 lung, 2.39 µM with COLO 205 colon and 0.496 µM in the assay on K-562 leukemia. The TGI in the assay on SF-539 CNS is 18.9 µM; in the assay with MDA-MB-231 breast, 14.2 µM; in the assay with SK-MEL-5 melanoma, 3.28 µM; in the assay on HOP-62 NSCLC it was 18.7 µM; in the assay with HT29 colon it was 6.28 µM; in the assay on M14 melanoma, 16.5 µM. Further, the concentration for total growth inhibition (TGI) with SK-OV-3 ovarian is 27.1 µM; in the assay with NCI-H226 lung, 19.5 µM; in the assay with COLO 205 colon, 15.2 µM; with K-562 leukemia it was greater than 100 µM.
For `C=CCCC(O)c1ccc(C(O)CCCCCCCCCCCC)o1` (stereo not given), the GI50 with SF-539 CNS is 19.7 µM; in the assay with MDA-MB-231 breast, 20.1 µM; in the assay with SK-MEL-5 melanoma, 20.1 µM; in the assay with HOP-62 NSCLC, 19.1 µM; in the assay on HT29 colon, 32.3 µM; in the assay with M14 melanoma, 17.8 µM. Besides, the GI50 was greater than 100 µM in the assay with SK-OV-3 ovarian, 21.7 µM in the assay with NCI-H226 lung, 40.5 µM with COLO 205 colon and 9.29 µM in the assay with K-562 leukemia. The TGI with SF-539 CNS was 37.5 µM; in the assay with MDA-MB-231 breast it was 38.5 µM; with SK-MEL-5 melanoma, 35.7 µM; in the assay with HOP-62 NSCLC, 34.8 µM; in the assay with HT29 colon, greater than 100 µM; in the assay with M14 melanoma, 35.3 µM. Also, the concentration for total growth inhibition (TGI) in the assay on SK-OV-3 ovarian is greater than 100 µM; in the assay with NCI-H226 lung it was 43.9 µM; in the assay on COLO 205 colon, greater than 100 µM; in the assay on K-562 leukemia, 27.2 µM.
For `CCOC(=O)C1=C(N)Oc2c(sc3c(C)cccc23)C1c1ccc(Cl)cc1` (stereo not given), the GI50 is 1.8 µM in the assay with SF-539 CNS; 4.29 µM in the assay on MDA-MB-231 breast; 4.04 µM in the assay on SK-MEL-5 melanoma; 3.81 µM in the assay with HOP-62 NSCLC; 3.16 µM in the assay with HT29 colon; 2.46 µM in the assay with M14 melanoma. Also, the GI50 in the assay on SK-OV-3 ovarian is 7.97 µM; with NCI-H226 lung it was 5.02 µM; with COLO 205 colon it was 3.46 µM; in the assay on K-562 leukemia it was 1.32 µM. Further, the TGI in the assay with SF-539 CNS is 5.57 µM; with MDA-MB-231 breast, 17.4 µM; with SK-MEL-5 melanoma, 14.4 µM; in the assay with HOP-62 NSCLC it was 21.8 µM; in the assay with HT29 colon it was 11.8 µM; in the assay with M14 melanoma, 11.2 µM. Besides, the TGI in the assay with SK-OV-3 ovarian was 30.1 µM; with NCI-H226 lung it was 19.8 µM; with COLO 205 colon, 14.1 µM; with K-562 leukemia, greater than 100 µM.
For `CC1(C)CC(=O)C(C(c2cccc(O)c2O)C2C(=O)CC(C)(C)CC2=O)C(=O)C1`, the TGI in the assay with SF-539 CNS, with MDA-MB-231 breast, in the assay with SK-MEL-5 melanoma, in the assay on HOP-62 NSCLC, in the assay with HT29 colon and with M14 melanoma was greater than 100 µM in each case. The TGI in the assay with SK-OV-3 ovarian, in the assay with NCI-H226 lung, in the assay on COLO 205 colon and in the assay with K-562 leukemia was greater than 100 µM throughout.
`CCc1ccc(CCC(=O)Nc2ncc(Cc3cc(Cl)ccc3Cl)s2)o1`: the GI50 in the assay on SF-539 CNS is 1.26 µM; with MDA-MB-231 breast it was 2.16 µM; in the assay with SK-MEL-5 melanoma, 1.21 µM; with HOP-62 NSCLC, 2.01 µM; in the assay on HT29 colon it was 1.17 µM; in the assay on M14 melanoma, 0.721 µM. Besides, the GI50 was 2.04 µM in the assay with SK-OV-3 ovarian, 3.61 µM with NCI-H226 lung, 1.26 µM in the assay with COLO 205 colon and 0.242 µM in the assay on K-562 leukemia. Also, the total growth inhibition concentration (TGI) was 4.1 µM in the assay on SF-539 CNS; 15.6 µM in the assay on MDA-MB-231 breast; greater than 50 µM in the assay with SK-MEL-5 melanoma; 16.9 µM in the assay on HOP-62 NSCLC; greater than 50 µM with HT29 colon; greater than 50 µM in the assay with M14 melanoma. Further, the concentration for total growth inhibition (TGI) with SK-OV-3 ovarian is greater than 50 µM; in the assay with NCI-H226 lung it was greater than 50 µM; in the assay with COLO 205 colon, 11 µM; in the assay on K-562 leukemia, greater than 50 µM.
